Experimental findings from article PMC4020173 (Bioorganic & medicinal chemistry, 2014) are described below.

One assay concerns MDA-MB-231 tumors. In words: MicroPET imaging with [^18F]12 in MDA-MB-231 tumor-bearing mice. It is filed as in vivo. Particulars: MDA-MB-231 tumor in mice; olaparib i.p. 50 mg/kg 20 min pretreatment; time-radioactivity curves.
Assay [1] concerns MDA-MB-436 human breast cancer xenograft tumors. In words: MicroPET imaging with [^18F]12 in MDA-MB-436 tumor-bearing mice. It is filed as in vivo. Particulars: MDA-MB-436 tumors in mice; olaparib 50 mg/kg i.p. or 12 1 mg/kg i.p., 20 min prior to tracer injection.

The structures appear in SMILES notation. “Also recorded” adds a separate entry of the source.

Consider `O=C(c1cc(Cc2n[nH]c(=O)c3ccccc23)ccc1F)N1CCN(C(=O)C2CC2)CC1` [olaparib], for which the “Effect of pretreatment on [^18F]12 uptake in tumor (blocking)” value in the assay on MDA-MB-231 tumors was “decreased [^18F]12 uptake”; in assay [1], “blocked; also recorded: decreased [^18F]12 uptake in the tumors to the background tissue activity levels”. As for `O=C1NCCn2c(-c3ccc(OCCF)cc3)nc3cccc1c32` [Compound 12, 5,6-Dihydro-2-(4-(2-fluoroethoxy)phenyl)-imidazo[4,5,1-jk][1,4]benzodiazepin-7(4H)-ones], the “Effect of pretreatment on [^18F]12 uptake in tumor (blocking)” value in assay [1] was “decreased [^18F]12 uptake in the tumors to the background tissue activity levels; also recorded: blocked”.
